# Data reported in US20260364072A1, “METHODS FOR PROMOTING EXPANSION OF HUMAN CD34+ CELLS IN VIVO AND FOR PROMOTING NEURAL REGENERATION” (THE REGENTS OF THE UNIVERSITY OF CALIFORNIA, priority 2023, published 2026).
# What was measured:
# phospho-STAT3 = phospho-STAT3 intracellular flow cytometry; type: cell-based, human
# Procedure: Flow cytometry for stem and progenitor cell surface antibody staining was performed as previously described.^14 For phospho-flow, a subset of samples was fixed and permeabilized, then blocked and stained with APC-conjugated ADAR1p150 antibody (cat ab269444, 1:25) and pSTAT3 APC (cat 17-9033-42, 1:10) (Table S2). Fractions were analyzed with the BD LSR FORTESSA™ (Sanford Consortium for Regenerative Medicine Stem Cell Core) and FLOWJO™ software (TreeStar, Ashland, OR).
# [1] = Rabbit single-dose toxicokinetic study; type: in vivo, New Zealand white rabbits; details: IV bolus
# Procedure: Pre-IND PD and toxicokinetic (TK) studies (FIG. 4D) were enabled by scalable Rebecsinib synthesis^34 and development of an optimized formulation for in vivo biodistribution (5% w/v EtOH, 5% w/v Kolliphor HS15 in 0.9% Sodium Chloride). In PK studies, Rebecsinib was detectable in rat, rabbit, and non-human primate (NHP) plasma following IV bolus administration. In rat TK studies, Rebecsinib was quantifiable up to 1-hour post-dose at 1 mg/kg and up to 4 hours post-dose at 3, 5, and 8 mg/kg (FIG. 4E). […] Rebecsinib T1/2 values were 0.342, 0.447, 0.313, and 0.530 hours at 1, 3, 5, and 8 mg/kg, respectively. […] Following 3, 10, and 20 mg/kg boluses, Rebecsinib was quantifiable in plasma 1 hour post-dose and could be detected up to 8 hours post-dosing with 40 mg/kg (FIG. 4F). […] Following 3, 10, 15, and 20 mg/kg of Rebecsinib, quantifiable plasma concentrations of Rebecsinib were observed through 8 hrs post-dose (FIG. 4G).
# (FIG. 29D) Schematic diagram outlining multispecies toxicokinetic (TK) and pharmacodynamic studies in mammalian species treated in vivo with a single dose of Rebecsinib. Toxicokinetic analyses were performed in rats (n=6 per sex, per group), rabbits (n=2 per sex, per group), and non-human primates (NHPs, n=1 per sex, per group) and pharmacodynamic splice isoform quantification studies were performed in peripheral blood mononuclear cells (PBMCs) from NHP.
# (FIG. 29E, FIG. 29F) For toxicokinetic analyses, rats (FIG. 29E) and rabbits (FIG. 29F) were given a single injection of Rebecsinib at 1-40 mg/kg, or vehicle control, and blood samples were drawn at regular intervals to determine plasma concentrations of the compound over 8 hr after treatment.
# Single-dose TK studies were performed in Sprague Dawley rats (Charles River Labs, South San Francisco, CA), New Zealand white rabbits (BASi/Inotiv, West Lafayette, IN), and cynomolgus monkeys (BASi/Inotiv). Rat and rabbit studies included toxicology analyses, quantification of plasma levels of Rebecsinib, and necropsies to evaluate organ integrity after treatment. For NHP studies, health and ophthalmological evaluations were performed before and after dosing with Rebecsinib, and blood samples were collected for quantification of plasma levels of Rebecsinib and biomarker studies in PBMCs from treated and control animals. All monkeys were returned to the animal colony after the end of the observation period. Toxicokinetic values including mean plasma concentrations and t1/2 values were calculated according to CRO-approved protocols (Charles River and BASi).
# sAML LSC = test: Serial transplantation assays of sAML LSC; type: in vivo, human cells in mice
# Procedure: To test this, we performed serial transplantation assays of cells harvested from sAML50261 LSC engrafted mice that were treated intravenously twice weekly for two weeks with Rebecsinib at 10 mg/kg (serial transplant recipients received no further treatment). […] Thus, reductions in ADAR1p150-mediated RNA editing activity following Rebecsinib treatment correspond with a reversion to a healthy splice isoform expression profile^14 in engrafted human progenitors.
# In humanized mouse models, sAML cells (CD34^+) from two unique […] patient samples that were splicing factor mutated or unmutated were utilized, including sAML50261 and sAML2008-5.^14 For in vivo efficacy and therapeutic index studies, sAML CD34^+ cells, or normal human cord blood-derived or aged bone marrow-derived HSPCs (CD34^+), were transplanted (50,000-200,000 cells per mouse) intrahepatically into neonatal Rag2^−/−γc^−/− mice, or intravenously into adult NSG-SGM3 mice (Jackson Laboratories, Bar Harbor, ME). A subset of experiments was performed with normal aged bone marrow cells that were transduced with the lentiviral ADAR1 nanoluc-GFP reporter vector prior to transplant. For transplantation into adult mice, animals were irradiated with ^137Cs at a dose of 150 cGy 24 hr before IV transplantation. After engraftment levels reached >1% human CD45^+ hematopoietic cells in the peripheral blood, animals were distributed among treatment groups for treatment with Rebecsinib or vehicle control essentially as previously described, with an increased dosing regimen of twice weekly (versus once weekly in prior studies)^14 and an optimized in vivo formulation (2% w/w EtOH, 5% w/v KOLLIPHOR HS™ 15 in 0.9% saline). For animals that received transplants of cells transduced with the lentiviral ADAR1 nanoluc-GFP reporter, mice were imaged 15 weeks after transplant on the IVIS 200, as previously described.^79 Following treatment with Rebecsinib (five intravenous doses total over a two-week period), hematopoietic tissues (peripheral blood, bone marrow, spleens) were collected and analyzed by flow cytometry as previously described.^14 For splice isoform-specific qRT-PCR or RNA-seq analyses on cells from in vivo studies, human CD34^+ LSC from bone marrows and spleens of engrafted mice were isolated by magnetic bead separation (Miltenyi Biotec).
# Additional aliquots of CD34+ cells from bone marrow and/or spleens of treated and control animals were used for serial transplantation assays after Rebecsinib treatment, including engraftment studies and overall survival assays. In a separate cohort of animals, mice were treated with Fedratinib for two weeks (twice daily oral delivery at 60 mg/kg) as a positive control for modulation of ADAR1 expression and activity.^8
smiles,measurement,setting,value
CC[C@H](OC)[C@@H](C)[C@H]1O[C@@H]1[C@@H](O)[C@H](C)/C=C/C=C(\C)[C@H]1OC(=O)C[C@H](O)CC[C@@](C)(O)[C@@H](OC(C)=O)/C=C/[C@@H]1C [Rebecsinib],phospho-STAT3 expression,phospho-STAT3,reduced phospho-STAT3 expression
same,time quantifiable in plasma post-dose,[1]; 3 mg/kg,1 h
same,time quantifiable in plasma post-dose,[1]; 10 mg/kg,1 h
same,time quantifiable in plasma post-dose,[1]; 20 mg/kg,1 h
same,last time detected in plasma post-dosing,[1]; 40 mg/kg,up to 8 hours
same,half-life,"[1]; plasma, read-out: plasma t1/2",7.2 to 53.4 min
same,ADAR-208 expression after serial transplantation compared with ADAR1p110,"sAML LSC; CD34+ cells from serial transplant recipients, RNA-seq",sustained reductions in expression
same,frequency of hematopoietic progenitors (CD34+CD38+Lin-) in spleens of serial transplant recipients,"sAML LSC; sAML50261, 10 mg/kg intravenously twice weekly for two weeks (primary mice)",reduced frequency of hematopoietic progenitors
same,LSC self-renewal on serial transplantation,sAML LSC; splicing factor mutated sAML (2008-5),significantly reduced LSC self-renewal
same,overall survival of serial transplant recipients,sAML LSC; splicing factor unmutated sAML 50261,significant improvement in overall survival
